This is an account of results in BindingDB's records for doi:10.1021/jm00171a016 (University of Oregon, 1990).

pIC50: −log10 of the molar value.

The assay in a line: In vitro inhibitory activity against [3H]DTG binding to Sigma opioid receptor in guinea pig brain membrane homogenates.

In turn, `Cc1ccccc1N=C(N)NC1CCCCC1` showed a pIC50 of 7.92.

As for `NC(=Nc1ccccc1I)NC12CC3CC(CC(C3)C1)C2`, the pIC50 was 8.22.

As to `NC(=NC1CC2CCC1C2)Nc1ccccc1I` (stereo not given), the pIC50 is 8.40.

As for `NC(=Nc1ccc(Br)cc1)Nc1ccc(Br)cc1`, the pIC50 was 6.27.

`Cc1ccccc1N=C(N)Nc1cccc(O)c1` had a negative-log IC50 (pIC50) of 6.68.

For the molecule `Cc1cc([N+](=O)[O-])ccc1N=C(N)Nc1ccccc1C`, the negative-log IC50 (pIC50) is 7.43.

Regarding `Cc1cc([N+](=O)[O-])ccc1NC(N)=Nc1cccc(O)c1`, the pIC50 is 6.93.

The molecule `N=C(NCc1ccccc1)NCc1ccccc1` had a negative-log IC50 (pIC50) of 7.05.

The molecule `Cc1ccccc1NC(N)=NC1CC2CCC1C2` (stereo not given) showed a pIC50 of 8.22.

As for `Cc1cc([N+](=O)[O-])ccc1/N=C(/N)Nc1ccc([N+](=O)[O-])cc1C`, the pIC50 was 6.12.

One may read the pIC50 as the IC50 on a negative log10 scale, so that one unit is a factor of ten.
